# Laboratory results: US7732375B2, “Hexyl carboxanilides and their use for controlling fungi” (Bayer CropScience AG, priority 2003, dated 2010)
# Legend:
# [1] = system: Podosphaera leucotricha; assay: Podosphaera test (apple)/protective; format: in vivo; conditions: 240 h, protective, application rate 100 g/ha, evaluation 10 days after inoculation, read-out: Efficacy in %
# Protocol: (§1) • Solvents: 24.5 parts by weight of acetone • 24.5 parts by weight of dimethylacetamide • Emulsifier: 1 part by weight of alkylaryl polyglycol ether
# (§2) To produce a suitable preparation of active compound, 1 part by weight of active compound is mixed with the stated amounts of solvents and emulsifier, and the concentrate is diluted with water to the desired concentration.
# To test for protective activity, young plants are sprayed with the preparation of active compound at the stated application rate. After the spray coating has dried on, the plants are inoculated with an aqueous spore suspension of the apple mildew pathogen Podosphaera leucotricha. The plants are then placed in a greenhouse at about 23° C. and a relative atmospheric humidity of about 70%.
# (§3) Evaluation is carried out 10 days after the inoculation. 0% means an efficacy which corresponds to that of the control, whereas an efficacy of 100% means that no infection is observed.
# [2] = system: Puccinia recondita; assay: Puccinia test (wheat)/protective; format: in vivo; conditions: evaluation 10 days after inoculation
# Protocol: • a) Solvent: 50 parts by weight of N,N-dimethylacetamide Emulsifier: 1 part by weight of alkylaryl polyglycol ether • b) Solvent: 25 parts by weight of N,N-dimethylacetamide Emulsifier: 0.6 part by weight of alkylaryl polyglycol ether To produce a suitable preparation of active compound, 1 part by weight of active compound is mixed with the stated amounts of solvent and emulsifier, and the concentrate is diluted with water to the desired concentration. To test for protective activity, young plants are sprayed with the preparation of active compound at the stated application rate. After the spray coating has dried on, the plants are sprayed with a conidia suspension of Puccinia recondita. The plants remain in an incubation cabin at 20° C. and 100% relative atmospheric humidity for 48 hours. The plants are then placed in a greenhouse at a temperature of about 20° C. and a relative atmospheric humidity of 80% to promote the development of rust pustules. Evaluation is carried out 10 days after the inoculation. 0% means an efficacy which corresponds to that of the control, whereas an efficacy of 100% means that no infection is observed.
# [3] = system: Sphaerotheca fuliginea; assay: Sphaerotheca test (cucumber)/protective; format: in vivo; conditions: protective, application rate 750 g/ha, evaluation 7 days after inoculation
# Protocol: Solvent: 49 parts by weight of N,N-dimethylformamide Emulsifier: 1 part by weight of alkylaryl polyglycol ether To produce a suitable preparation of active compound, 1 part by weight of active compound is mixed with the stated amounts of solvent and emulsifier, and the concentrate is diluted with water to the desired concentration. To test for protective activity, young cucumber plants are sprayed with the preparation of active compound at the stated application rate. 1 day after treatment the plants are inoculated with a spore suspension of Sphaerotheca fuliginea. The plants are then placed in a greenhouse at a relative atmospheric humidity of 70% and a temperature of 23° C. Evaluation is carried out 7 days after the inoculation. 0% means an efficacy which corresponds to that of the control, whereas an efficacy of 100% means that no infection is observed.
# [4] = logP determination by HPLC on reversed-phase column (C 18), EEC Directive 79/831 Annex V.A8; format: physicochemical; conditions: reversed-phase HPLC column (C 18), pH 2.3, 0.1% aqueous phosphoric acid and acetonitrile, 43° C.
# Protocol: The determination of the logP values given in the preparation examples and tables above is carried out in accordance with EEC Directive 79/831 Annex V.A8 by HPLC (High Performance Liquid Chromatography) on a reversed-phase column (C 18). Temperature: 43° C. The determination is carried out in the acidic range at pH 2.3 using the mobile phases, 0.1% aqueous phosphoric acid and acetonitrile; linear gradient from 10% acetonitrile to 90% acetonitrile. Calibration is carried out using unbranched alkan-2-ones (of 3 to 16 carbon atoms) with known logP values (determination of the logP values by the retention times using linear interpolation between two successive alkanones).
# [5] = system: Venturia inaequalis; assay: Venturia test (apple)/protective; format: in vivo; conditions: protective, application rate 100 g/ha, evaluation 10 days after inoculation; for pest or weed control at 100 g/ha: Venturia inaequalis, 240 h, read-out: Efficacy in %
# Protocol: as §1, §2
# To test for protective activity, young plants are sprayed with the preparation of active compound at the stated application rate. After the spray coating has dried on, the plants are inoculated with an aqueous conidia suspension of the apple scab pathogen Venturia inaequalis and then remain in an incubation cabin at about 20° C. and 100% relative atmospheric humidity for 1 day.
# The plants are then placed in a greenhouse at about 21° C. and a relative atmospheric humidity of about 90%.
# as §3
# [6] = system: Botrytis cinerea; assay: Botrytis test (bean)/protective; format: in vivo; conditions: protective, application rate 500 g/ha, evaluation 2 days after inoculation; for pest or weed control at 500 g/ha: Botrytis cinerea, 48 h, read-out: Efficacy in %
# Protocol: as §1, §2
# To test for protective activity, young plants are sprayed with the preparation of active compound at the stated application rate. After the spray coating has dried on, 2 small pieces of agar colonized by Botrytis cinerea are placed onto each leaf. The inoculated plants are placed in a dark chamber at about 20° C. and 100% relative atmospheric humidity.
# 2 days after the inoculation, the size of the infected areas on the leaves is evaluated. 0% means an efficacy which corresponds to that of the control, whereas an efficacy of 100% means that no infection is observed.
# [7] = system: Erysiphe graminis f.sp. hordei; assay: Erysiphe test (barley)/protective; format: in vivo; conditions: protective, application rate 500 g/ha, evaluation 7 days after inoculation
# Protocol: Solvent: 25 parts by weight of N,N-dimethylacetamide Emulsifier: 0.6 part by weight of alkylaryl polyglycol ether To produce a suitable preparation of active compound, 1 part by weight of active compound is mixed with the stated amounts of solvent and emulsifier, and the concentrate is diluted with water to the desired concentration. To test for protective activity, young plants are sprayed with the preparation of active compound at the stated application rate. After the spray coating has dried on, the plants are dusted with spores of Erysiphe graminis f.sp. hordei. The plants are placed in a greenhouse at a temperature of about 20° C. and a relative atmospheric humidity of about 80% to promote the development of mildew pustules. Evaluation is carried out 7 days after the inoculation. 0% means an efficacy which corresponds to that of the control, whereas an efficacy of 100% means that no infection is observed.
# [8] = wheat; application rate 500 g/ha; solvent/emulsifier a)
# [9] = wheat; application rate 500 g/ha; solvent/emulsifier b)
compound,measurement,setting,value
CC(CC(C)(C)C)c1ccccc1NC(=O)c1c(C(F)(F)F)nn(C)c1Cl (stereo not drawn),pest or weed control at 100 g/ha,[1],97%
CCC(C)(C)CC(C)c1ccccc1NC(=O)c1cn(C)nc1C(F)(F)F (stereo not drawn),Efficacy in %,[2]; [8],100%
Cc1nc(Cl)sc1C(=O)Nc1ccccc1C(C)CC(C)(C)C (stereo not drawn),Efficacy in %,[2]; [8],100%
Cc1occc1C(=O)Nc1ccccc1C(C)CC(C)(C)C (stereo not drawn),Efficacy in %,[2]; [9],100%
CC(F)c1nn(C)cc1C(=O)Nc1ccccc1C(C)CC(C)(C)C (stereo not drawn),Efficacy in %,[3],90%
CC(CC(C)(C)C)c1ccccc1NC(=O)c1cn(C)nc1C(Cl)Cl (stereo not drawn) [Example 1],chromatographic logP,[4],4.02
"Cn1cc(C(=O)Cl)c(C(Cl)Cl)n1 [Example (II-1), 3-dichloromethyl-1-methyl-1H-pyrazole-4-carbonyl chloride]",chromatographic logP,[4],1.8
Cc1ccsc1C(=O)Nc1ccccc1C(C)CC(C)(C)C (stereo not drawn) [drawing 85],pest or weed control at 100 g/ha,[1],85%
CCC(C)(C)CC(C)c1ccccc1NC(=O)C1=C(C)OCCS1 (stereo not drawn) [drawing 86],pest or weed control at 100 g/ha,[1],94%
CCC(C)(C)CC(C)c1ccccc1NC(=O)c1ccoc1C (stereo not drawn) [drawing 87],pest or weed control at 100 g/ha,[1],91%
CCC(C)(C)CC(C)c1ccccc1NC(=O)c1sccc1C (stereo not drawn) [drawing 88],pest or weed control at 100 g/ha,[1],98%
CC(CC(C)(C)C)c1ccccc1NC(=O)c1cn(C)nc1C(F)(F)F (stereo not drawn) [drawing 89],pest or weed control at 100 g/ha,[1],95%
CCc1nn(C)c(Cl)c1C(=O)Nc1ccccc1C(C)CC(C)(C)C (stereo not drawn) [drawing 90],pest or weed control at 100 g/ha,[1],96%
CC(CC(C)(C)C)c1ccccc1NC(=O)c1cn(C)nc1Cl (stereo not drawn) [drawing 91],pest or weed control at 100 g/ha,[1],100%
Cc1nc(C(F)(F)F)c(C(=O)Nc2ccccc2C(C)CC(C)(C)C)s1 (stereo not drawn) [drawing 93],pest or weed control at 100 g/ha,[1],100%
Cc1ccsc1C(=O)Nc1ccccc1C(C)CC(C)(C)C (stereo not drawn) [drawing 94],pest or weed control at 100 g/ha,[5],96%
CC1=C(C(=O)Nc2ccccc2C(C)CC(C)(C)C)SCCO1 (stereo not drawn) [drawing 95],pest or weed control at 100 g/ha,[5],100%
CCC(C)(C)CC(C)c1ccccc1NC(=O)C1=C(C)OCCS1 (stereo not drawn) [drawing 96],pest or weed control at 100 g/ha,[5],100%
CCC(C)(C)CC(C)c1ccccc1NC(=O)c1ccoc1C (stereo not drawn) [drawing 97],pest or weed control at 100 g/ha,[5],93%
CCC(C)(C)CC(C)c1ccccc1NC(=O)c1sccc1C (stereo not drawn) [drawing 98],pest or weed control at 100 g/ha,[5],99%
CC(CC(C)(C)C)c1ccccc1NC(=O)c1cn(C)nc1C(F)(F)F (stereo not drawn) [drawing 99],pest or weed control at 100 g/ha,[5],95%
CCc1nn(C)c(Cl)c1C(=O)Nc1ccccc1C(C)CC(C)(C)C (stereo not drawn) [drawing 100],pest or weed control at 100 g/ha,[5],92%
CC(CC(C)(C)C)c1ccccc1NC(=O)c1cn(C)nc1Cl (stereo not drawn) [drawing 101],pest or weed control at 100 g/ha,[5],100%
CC(CC(C)(C)C)c1ccccc1NC(=O)c1cn(C)nc1C(F)(F)F (stereo not drawn) [drawing 102],Efficacy in %,[5],99%
Cc1nc(C(F)(F)F)c(C(=O)Nc2ccccc2C(C)CC(C)(C)C)s1 (stereo not drawn) [drawing 103],pest or weed control at 100 g/ha,[5],99%
Cc1ccsc1C(=O)Nc1ccccc1C(C)CC(C)(C)C (stereo not drawn) [drawing 104],pest or weed control at 500 g/ha,[6],100%
CC1=C(C(=O)Nc2ccccc2C(C)CC(C)(C)C)SCCO1 (stereo not drawn) [drawing 105],pest or weed control at 500 g/ha,[6],95%
CCC(C)(C)CC(C)c1ccccc1NC(=O)C1=C(C)OCCS1 (stereo not drawn) [drawing 106],pest or weed control at 500 g/ha,[6],100%
CCC(C)(C)CC(C)c1ccccc1NC(=O)c1ccoc1C (stereo not drawn) [drawing 107],pest or weed control at 500 g/ha,[6],88%
CCC(C)(C)CC(C)c1ccccc1NC(=O)c1sccc1C (stereo not drawn) [drawing 108],pest or weed control at 500 g/ha,[6],100%
CC(CC(C)(C)C)c1ccccc1NC(=O)c1cn(C)nc1C(F)(F)F (stereo not drawn) [drawing 109],pest or weed control at 500 g/ha,[6],100%
CC(CC(C)(C)C)c1ccccc1NC(=O)c1cn(C)nc1Cl (stereo not drawn) [drawing 110],pest or weed control at 500 g/ha,[6],95%
CC(CC(C)(C)C)c1ccccc1NC(=O)c1cn(C)nc1C(F)(F)F (stereo not drawn) [drawing 111],Efficacy in %,[6],97%
Cc1nc(C(F)(F)F)c(C(=O)Nc2ccccc2C(C)CC(C)(C)C)s1 (stereo not drawn) [drawing 112],pest or weed control at 500 g/ha,[6],95%
Cc1nc(C)c(C(=O)Nc2ccccc2C(C)CC(C)(C)C)s1 (stereo not drawn) [drawing 113],Efficacy in %,[2]; [8],100%
CCC(C)(C)CC(C)c1ccccc1NC(=O)C1=C(C)OCCS1 (stereo not drawn) [drawing 114],Efficacy in %,[2]; [8],100%
CC(CC(C)(C)C)c1ccccc1NC(=O)c1cn(C)nc1C(F)(F)F (stereo not drawn) [drawing 117],Efficacy in %,[2]; [8],100%
CCc1nn(C)c(Cl)c1C(=O)Nc1ccccc1C(C)CC(C)(C)C (stereo not drawn) [drawing 118],Efficacy in %,[2]; [8],100%
Cc1ccsc1C(=O)Nc1ccccc1C(C)CC(C)(C)C (stereo not drawn) [drawing 119],Efficacy in %,[2]; [9],100%
CC1=C(C(=O)Nc2ccccc2C(C)CC(C)(C)C)SCCO1 (stereo not drawn) [drawing 121],Efficacy in %,[2]; [9],100%
CCC(C)(C)CC(C)c1ccccc1NC(=O)c1ccoc1C (stereo not drawn) [drawing 122],Efficacy in %,[2]; [9],100%
Cc1nc(C)c(C(=O)Nc2ccccc2C(C)CC(C)(C)C)s1 (stereo not drawn) [drawing 123],Efficacy in %,[3],95%
Cc1ccsc1C(=O)Nc1ccccc1C(C)CC(C)(C)C (stereo not drawn) [drawing 124],Efficacy in %,[3],95%
Cc1nc(C)c(C(=O)Nc2ccccc2C(C)CC(C)(C)C)s1 (stereo not drawn) [drawing 126],Efficacy in %,[7],100%
Cc1ccsc1C(=O)Nc1ccccc1C(C)CC(C)(C)C (stereo not drawn) [drawing 127],Efficacy in %,[7],100%
CCC(C)(C)CC(C)c1ccccc1NC(=O)C1=C(C)OCCS1 (stereo not drawn) [drawing 128],Efficacy in %,[7],94%
CCC(C)(C)CC(C)c1ccccc1NC(=O)c1ccoc1C (stereo not drawn) [drawing 129],Efficacy in %,[7],100%
Cc1nc(C(F)(F)F)c(C(=O)Nc2ccccc2C(C)CC(C)(C)C)s1 (stereo not drawn) [drawing 130],Efficacy in %,[7],100%
